These results are taken from patent US8642630B2, “Endogeneous repair factor production accelerators” (Ono Pharmaceutical Co., Ltd., priority 2002, dated 2014).

Experiment [1] relates to rat leg ischemia (arteriosclerosis obliterans (ASO)) model. Nature of the experiment: Angiogenesis test using rat leg ischemia (ASO) model, Example 4. Format: in vivo. As for the experimental part:
Leg ischemia model was prepared by ligating rat left femoral artery. Blood flow in hind legs was measured by using Laser Doppler Imager (Moor Instruments) 2 weeks after the preparation, and the animals were divided into 6 groups (n=5) in such a manner that the average value of blood flow became almost uniform.
Starting on the next day of the grouping, 0.1 ml/site, 2 sites, of the agent to be tested was administered by intramuscular injection into the left femoral adductor, for once a week, 4 times in total as a solution to be tested. One week after completion of the final administration, blood flows of hind legs were measured by using Laser Doppler Imager (Moor Instruments), and blood flows of the treated leg (left leg) and untreated leg (right leg) were compared and examined.
In this connection, construction of the solution to be tested is as follows. Solvent (control) group: 0.2 w/v % Tween 80 solution (0.2 ml).
• The polylactic acid-glycolic acid copolymer used in Preparation Example 2 was suspended in 0.2 w/v % Tween 80 solution (0.2 ml). In this connection, amount of the polylactic acid-glycolic acid copolymer is identical to the amount contained in the Compound 1 MS (1 mg). Compound 1 (1 mg) Group: • Compound 1 (1 mg) was suspended in 0.2 w/v % Tween 80 solution (0.2 ml). […]

In experiment [2] the test system is mouse sponge transplantation model. The experiment in a line: Angiogenesis test using mouse sponge transplantation model, Example 8. Format: in vivo. To be noted: for Hemoglobin content / Sponge wet weight: 15th day; for hemoglobin concentration in the granulation tissue, in words: vs polymer group. On the procedure: Under anesthesia, dorsal part of a mouse was incised and a discus urethane sponge (about 5 mm in thickness and 13 mm in diameter) was embedded therein. Administration of the agent was carried out by topically administering it directly into the sponge once a day for a total of 14 times starting on the day of the sponge transplantation model preparation, or on the operation-completed day and 7th day thereafter. On the 15th day after the sponge transplantation, the sponge containing granulation tissue was extracted and observed with the naked eye, and then its wet mass was measured. In addition, this was mixed with distilled water of 4 times larger amount than the wet mass, homogenized and centrifuged, and then the supernatant was subjected to the measurement of the hemoglobin content using Hemoglobin 13-Test Wako (manufactured by Wako Pure Chemical Industries).
• The polylactic acid-glycolic acid copolymer used in Preparation Example 2 was suspended in 0.2 w/v % Tween 80 solution (0.05 ml). In this connection, amount of the polylactic acid-glycolic acid copolymer is identical to the amount contained in Compound 1 MS (200 μg). Compound 1 (20 μg) Group: • Compound 1 (20 μg) was suspended in 0.2 w/v % Tween 80 solution (0.05 ml). Compound 1 (40 μg) Group:
Compound 1 (40 μg) was suspended in 0.2 w/v % Tween 80 solution (0.05 ml).
• Compound 1 (200 μg) was suspended in 0.2 w/v % Tween 80 solution (0.05 ml). Compound 1 MS (200 μg) group: • The microsphere preparation produced in Preparation Example 2 containing […] of Compound 1 was suspended in 0.2 w/v % Tween 80 solution (0.05 ml). Compound 1 MS (400 μg) Group: • The microsphere preparation produced in Preparation Example 2 containing 400 μg of Compound 1 was suspended in 0.2 w/v % Tween 80 solution (0.05 ml). Compound 3 (20 μg) Group: • Compound 3 (20 μg) was suspended in 0.2 w/v % Tween 80 solution (0.05 ml).

Where [3] appears, read: 20 μg into the sponge once a day, 14 days of repeated administration.
The mark [4] stands for this setting: 40 μg into the sponge once a day, 14 days of repeated administration.
Where [5] appears, read: 200 μg into the sponge, two administrations at 7 day intervals.

Regarding `O=C(O)COc1cccc2c1CCC=C2CCO/N=C(\c1ccccc1)c1cccnc1` [Compound 1, (E)-[5-[2-[1-phenyl-1-(3-pyridyl)methylideneaminoxy]ethyl]-7,8-dihydronaphthalen-1-yloxy]acetic acid], in experiment [1] (1 mg as Compound 1, i.m. left femoral adductor once a week x4, 1 week after final administration), the “Treated leg/untreated leg blood flow ratio” value amounted to 76.2 ± 2.8 %. Also, in experiment [1] (1 mg, i.m. once a week x4, vs Control / polymer group), the “blood flow improving effect, in words” value is reported as “significant recovery of blood flow against Control”. Further, the figures for the Hemoglobin content in experiment [2] (setting [3]), in experiment [2] (setting [4]) and in experiment [2] (setting [5]) were 2.403 ± 0.533 mg/g wet tissue, 3.010 ± 0.808 mg/g wet tissue and 1.964 ± 0.289 mg/g wet tissue, respectively. Further, the Sponge wet weight is reported as 0.3843 ± 0.0681 g in experiment [2] (setting [3]), 0.5136 ± 0.0938 g in experiment [2] (setting [4]) and 0.4123 ± 0.0320 g in experiment [2] (setting [5]). The “hemoglobin concentration in the granulation tissue, in words” value in experiment [2] (20 μg, 14 days of repeated administration) was “showed an increasing tendency, but is not a significant increase”; in experiment [2] (40 μg, 14 days of repeated administration) it was “showed an increasing tendency, but is not a significant increase”; in experiment [2] (200 μg, two administrations at 7 day intervals), “did not increase”.
